Target: T1, human T1R1, a rat-human T1R3 chimera, and the promiscuous G-protein G16gust25 (UniProt Q7RTX1+Q923K1, A568E/A645S/A698V/A702T/A793V/A807V/C582S/C678S/E725V/E827G/F612A/F622V/F805L/I617V/I740A/I779T/I803L/K818R/L735F/L823M/L825Q/M644L/M706V/M729T/N675D/Q717H/Q757R/Q795R/Q831P/R632Q/R634S/S576L/S610P/S635P/S637R/S679G/T588V/T694M/T813A/V584A/V718M/V723A/V738A/V744T/V821L/W599R/W676R/W824R/Y598H/Y680C/Y794L)
T1 sequence (Q7RTX1 21-841): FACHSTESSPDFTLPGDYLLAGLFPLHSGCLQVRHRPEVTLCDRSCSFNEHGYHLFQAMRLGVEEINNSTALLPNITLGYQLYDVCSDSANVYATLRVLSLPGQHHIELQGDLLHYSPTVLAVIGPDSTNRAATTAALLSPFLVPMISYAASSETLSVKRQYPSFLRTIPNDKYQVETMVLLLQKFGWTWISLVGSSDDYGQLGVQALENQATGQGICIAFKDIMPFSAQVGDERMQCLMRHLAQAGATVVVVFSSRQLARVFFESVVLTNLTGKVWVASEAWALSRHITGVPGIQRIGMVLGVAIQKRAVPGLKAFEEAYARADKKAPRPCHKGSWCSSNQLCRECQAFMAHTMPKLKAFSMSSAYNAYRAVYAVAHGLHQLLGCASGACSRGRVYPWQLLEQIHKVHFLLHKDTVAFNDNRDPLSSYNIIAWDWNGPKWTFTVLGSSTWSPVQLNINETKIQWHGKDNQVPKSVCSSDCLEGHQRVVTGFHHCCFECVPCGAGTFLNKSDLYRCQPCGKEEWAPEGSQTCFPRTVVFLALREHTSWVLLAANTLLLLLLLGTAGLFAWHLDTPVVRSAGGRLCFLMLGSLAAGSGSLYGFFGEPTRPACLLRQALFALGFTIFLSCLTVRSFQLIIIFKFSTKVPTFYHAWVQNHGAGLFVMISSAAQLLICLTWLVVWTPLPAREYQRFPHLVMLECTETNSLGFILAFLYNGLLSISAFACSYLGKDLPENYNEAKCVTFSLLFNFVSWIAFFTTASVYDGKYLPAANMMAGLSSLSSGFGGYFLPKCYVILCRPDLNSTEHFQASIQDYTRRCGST
T1 sequence (Q923K1 with tags, fused parts or gaps A568E/S576L/C582S/V584A/T588V/Y598H/W599R/S610P/F612A/I617V/F622V/R632Q/R634S/S635P/S637R/M644L/A645S/N675D/W676R/C678S/S679G/Y680C/T694M/A698V/A702T/M706V/Q717H/V718M/V723A/E725V/M729T/L735F/V738A/I740A/V744T/Q757R/I779T/A793V/Y794L/Q795R/I803L/F805L/A807V/T813A/K818R/V821L/L823M/W824R/L825Q/E827G/Q831P limits assumed): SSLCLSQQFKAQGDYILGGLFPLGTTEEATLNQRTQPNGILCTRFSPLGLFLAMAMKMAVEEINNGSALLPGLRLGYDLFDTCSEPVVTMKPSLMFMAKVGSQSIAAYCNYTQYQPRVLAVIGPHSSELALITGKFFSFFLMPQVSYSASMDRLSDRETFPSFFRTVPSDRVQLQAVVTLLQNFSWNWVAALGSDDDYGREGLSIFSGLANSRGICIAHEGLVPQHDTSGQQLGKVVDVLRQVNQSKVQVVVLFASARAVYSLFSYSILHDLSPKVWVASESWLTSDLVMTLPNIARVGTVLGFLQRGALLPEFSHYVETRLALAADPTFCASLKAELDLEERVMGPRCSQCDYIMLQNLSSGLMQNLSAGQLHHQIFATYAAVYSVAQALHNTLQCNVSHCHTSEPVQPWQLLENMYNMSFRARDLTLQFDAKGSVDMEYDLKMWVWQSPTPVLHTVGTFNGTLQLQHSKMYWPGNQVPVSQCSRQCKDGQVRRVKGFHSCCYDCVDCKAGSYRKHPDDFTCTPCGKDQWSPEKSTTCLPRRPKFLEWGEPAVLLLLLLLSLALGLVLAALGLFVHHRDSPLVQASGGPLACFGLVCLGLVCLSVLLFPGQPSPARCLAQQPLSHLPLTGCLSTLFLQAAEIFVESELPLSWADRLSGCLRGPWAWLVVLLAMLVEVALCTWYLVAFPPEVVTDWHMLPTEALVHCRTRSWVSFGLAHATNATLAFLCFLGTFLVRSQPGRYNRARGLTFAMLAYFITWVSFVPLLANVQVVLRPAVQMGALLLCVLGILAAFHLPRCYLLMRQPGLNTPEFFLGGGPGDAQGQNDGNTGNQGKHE
Settings: MSG dose response, U2OS cell line, FIG. 4A
Description: The x-axis plots the log of MSG concentration, while the y-axis plots fold change in fluorescence of a Ca^2+-sensitive fluorescent dye in response to intracellular Ca^2+ concentration.
The x-axis plots the log of savory compound concentration, while the y-axis plots fold change in fluorescence of a Ca^2+-sensitive fluorescent dye in response to intracellular Ca^2+ concentration. FIG. 4A also indicates the EC50 for each compound.

In the case of `N[C@@H](CCC(=O)O)C(=O)[O-].[Na+]` [MSG, monosodium glutamate], the “fold change in fluorescence of a Ca^2+-sensitive fluorescent dye in response to intracellular Ca^2+ concentration” value is reported as “fluorescence detectably increases as MSG concentration increases”.
